Measurements published in doi:10.1101/2025.10.30.685166v1 (biorxiv, 2025).

Experiments:
[1] = target: T1, Hco-UNC-49B/Hco-UNC-49C heteromeric channel (Haemonchus contortus, UniProt D6BJF3+D6BK80); assay: cell-based
T1 sequence (D6BK80 22-496): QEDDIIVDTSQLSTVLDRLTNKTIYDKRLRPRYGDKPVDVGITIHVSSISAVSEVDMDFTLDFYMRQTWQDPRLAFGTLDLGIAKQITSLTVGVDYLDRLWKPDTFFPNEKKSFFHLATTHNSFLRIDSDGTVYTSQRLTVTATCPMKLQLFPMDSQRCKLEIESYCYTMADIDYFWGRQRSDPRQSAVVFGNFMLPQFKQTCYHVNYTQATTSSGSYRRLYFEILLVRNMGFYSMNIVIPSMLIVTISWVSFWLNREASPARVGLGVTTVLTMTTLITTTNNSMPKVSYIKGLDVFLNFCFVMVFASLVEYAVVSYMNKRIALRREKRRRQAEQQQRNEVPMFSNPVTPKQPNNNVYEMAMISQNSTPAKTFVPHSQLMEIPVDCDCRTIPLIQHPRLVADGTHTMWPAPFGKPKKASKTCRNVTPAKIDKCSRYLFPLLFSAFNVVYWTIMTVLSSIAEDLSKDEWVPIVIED
T1 sequence (D6BJF3 22-440): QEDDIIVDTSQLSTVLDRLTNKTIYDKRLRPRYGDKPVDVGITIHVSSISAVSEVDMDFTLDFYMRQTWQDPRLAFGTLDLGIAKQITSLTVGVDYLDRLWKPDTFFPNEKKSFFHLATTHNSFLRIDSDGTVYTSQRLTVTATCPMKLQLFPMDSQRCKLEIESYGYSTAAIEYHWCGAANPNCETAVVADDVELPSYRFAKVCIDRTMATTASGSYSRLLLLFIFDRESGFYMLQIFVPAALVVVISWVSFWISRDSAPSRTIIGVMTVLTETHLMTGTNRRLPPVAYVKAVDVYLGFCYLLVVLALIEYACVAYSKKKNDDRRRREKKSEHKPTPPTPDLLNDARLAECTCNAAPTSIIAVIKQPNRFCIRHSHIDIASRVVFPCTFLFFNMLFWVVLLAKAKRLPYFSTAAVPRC

[2] = target: T2, Hco-UNC-49B homomeric channel (Haemonchus contortus, UniProt D6BK80); assay: cell-based
T2 sequence (D6BK80 22-496): T1 sequence (D6BK80 22-496)

In the case of `NCCCC(=O)O` [GABA], the EC50 [1] is reported as 84.9 ± 4 µM and the EC50 [2] is reported as 137 ± 7 µM.
